# Like-named read-outs stand apart in the source and are kept apart here.
# Tests used:
# [1] = target: T1, GPCR109a (Homo sapiens, UniProt Q8TDS4); conditions: doses of 5 mM and below; FIG. 6A
# Experimental: (§1) Cells were grown in DMEM medium containing 10% FBS, 1× non-essential amino acids (Gibco #111450-040), 20 mM HEPES and 250 μg/mL Geneticin® (Gibco #10131-035). Cells were harvested with 0.25% Trypsin/EDTA (Gibco #25200-056), pelleted at 1,200×g for 6 minutes and resuspended in DMEM media described above minus Geneticin®. The cells were seeded at 4×10^4 cells/well/100 μL of a clear bottom/black 96-well plate and grown overnight. The calcium mobilization assays was performed using Screen Quest Fluo-8 Medium Removal Calcium Assay Kit (AAT Bioquest #36308) according to the manufacturer's protocol. Briefly, cells were washed with 100 μL volume of Hank's balanced salt solution, 20 mM HEPES, pH 7.4 and loaded with a buffer containing HBSS, 20 mM HEPES, 1× Pluronic F127 and the Fluo-8 NW dye. The cells were incubated for 30 minutes at 37° C. followed by a 30 minute room temperature incubation. Drug stocks were prepared at 100× concentration and diluted 1:33 in HBSS, 20 mM HEPES, pH 7.4 in a 96-well plate (Corning #3641). Calcium mobilization was measured using the FlexStation 3 (Molecular Devices) at excitation wavelength of 490 nm and emission wavelength of 525 nm. Fluorescence was measured for 180 seconds at 5 second intervals with the addition of compound at a 1:3 dilution after 15 seconds. Peak fluorescence values were calculated using SoftMax Pro 5 (Molecular Devices). The fluorescence values obtained from control wells without cells are subtracted from wells containing treated cells to correct for background. The ratio of fluorescence values of treated cells to vehicle control wells was used to calculate fold activity of the compounds.
# (§2) The specificity of the agonist activity was determined by testing in the cell lines that over-express GPCR40 and GPCR 109a.
# [2] = target: GPCR40 (Homo sapiens, UniProt O14842); conditions: doses of 5 mM and below; FIG. 7A
# Sequence of GPCR40 (O14842 whole entry): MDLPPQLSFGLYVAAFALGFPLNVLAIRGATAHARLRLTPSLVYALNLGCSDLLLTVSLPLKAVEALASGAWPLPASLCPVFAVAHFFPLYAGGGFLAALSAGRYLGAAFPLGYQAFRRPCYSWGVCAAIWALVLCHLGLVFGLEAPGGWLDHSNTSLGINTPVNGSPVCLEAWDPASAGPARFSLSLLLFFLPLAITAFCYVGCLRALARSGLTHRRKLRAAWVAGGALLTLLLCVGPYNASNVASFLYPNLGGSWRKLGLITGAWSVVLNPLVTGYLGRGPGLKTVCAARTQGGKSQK
# Experimental: as §1, §2
# [3] = target: NPBW1 (Homo sapiens, UniProt P48145); experiment: cell-based
# Sequence of NPBW1 (P48145 whole entry): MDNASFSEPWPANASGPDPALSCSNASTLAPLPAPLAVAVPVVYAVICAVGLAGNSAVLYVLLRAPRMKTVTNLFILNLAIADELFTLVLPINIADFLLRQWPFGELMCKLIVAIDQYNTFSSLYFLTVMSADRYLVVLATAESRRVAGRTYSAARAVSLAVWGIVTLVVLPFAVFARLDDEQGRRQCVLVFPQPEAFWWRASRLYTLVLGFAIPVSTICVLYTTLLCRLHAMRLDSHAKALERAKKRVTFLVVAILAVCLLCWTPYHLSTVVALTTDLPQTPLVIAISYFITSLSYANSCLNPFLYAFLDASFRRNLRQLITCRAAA
# Experimental: (§3) The platform uses ChemiScreen GPCR stable cell lines that are used for real-time calcium flux assays to rapidly, screen a spectrum of GPCRs. […] Percentage activation values were determined upon initial addition of compound(s). Percentage activation and inhibition values were determined for each GPCR relative to the reference compounds.
# (§4) Assays were performed according to the manufacturer's instructions. […] The assay plate was read by the FLIPR TETRA® (Molecular Devices, Sunnyvale, Calif.). All assay plate data were subjected to appropriate baseline corrections and the maximum fluorescence values were processed to calculate percentage activation (relative to ECmax reference agonist and vehicle control values).
# [4] = target: T1, GPCR109a; experiment: cell-based
# Experimental: as §3, §4
# [5] = target: MRGX1 (Homo sapiens, UniProt Q96LB2); experiment: cell-based
# Sequence of MRGX1 (Q96LB2 whole entry): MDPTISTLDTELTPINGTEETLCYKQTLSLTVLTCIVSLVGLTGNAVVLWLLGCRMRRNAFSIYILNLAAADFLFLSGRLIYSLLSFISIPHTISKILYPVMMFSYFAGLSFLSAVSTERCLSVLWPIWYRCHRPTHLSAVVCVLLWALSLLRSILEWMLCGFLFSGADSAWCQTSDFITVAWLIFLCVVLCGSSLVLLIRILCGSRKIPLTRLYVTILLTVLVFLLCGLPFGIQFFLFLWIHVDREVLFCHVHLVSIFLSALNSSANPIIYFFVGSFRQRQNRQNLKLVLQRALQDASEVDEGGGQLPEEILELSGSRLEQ
# Experimental: as §3, §4
# [6] = target: MCHR2 (Homo sapiens, UniProt Q969V1); experiment: cell-based
# Sequence of MCHR2 (Q969V1 whole entry): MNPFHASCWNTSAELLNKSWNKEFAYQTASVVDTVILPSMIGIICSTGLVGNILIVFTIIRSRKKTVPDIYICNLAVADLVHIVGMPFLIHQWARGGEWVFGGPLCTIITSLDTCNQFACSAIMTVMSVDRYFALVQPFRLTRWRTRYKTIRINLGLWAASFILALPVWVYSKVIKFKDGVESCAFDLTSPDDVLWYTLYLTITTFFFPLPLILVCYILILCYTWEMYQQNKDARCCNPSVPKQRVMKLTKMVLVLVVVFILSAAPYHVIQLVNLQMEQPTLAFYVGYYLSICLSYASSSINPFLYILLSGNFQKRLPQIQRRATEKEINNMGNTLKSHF
# Experimental: as §3, §4
# [7] = target: MC4 (Homo sapiens, UniProt P32245); experiment: cell-based
# Sequence of MC4 (P32245 whole entry): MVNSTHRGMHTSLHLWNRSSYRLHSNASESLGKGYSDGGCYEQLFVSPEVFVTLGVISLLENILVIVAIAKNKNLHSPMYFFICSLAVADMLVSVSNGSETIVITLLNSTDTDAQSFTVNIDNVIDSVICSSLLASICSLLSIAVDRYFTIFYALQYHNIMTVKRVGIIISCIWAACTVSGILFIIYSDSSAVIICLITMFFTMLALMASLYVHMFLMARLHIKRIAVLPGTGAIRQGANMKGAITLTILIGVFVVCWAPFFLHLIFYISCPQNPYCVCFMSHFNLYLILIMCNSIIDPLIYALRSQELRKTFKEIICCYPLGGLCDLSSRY
# Experimental: as §3, §4
# [8] = target: Motilin (Homo sapiens, UniProt O43193); experiment: cell-based
# Sequence of Motilin (O43193 whole entry): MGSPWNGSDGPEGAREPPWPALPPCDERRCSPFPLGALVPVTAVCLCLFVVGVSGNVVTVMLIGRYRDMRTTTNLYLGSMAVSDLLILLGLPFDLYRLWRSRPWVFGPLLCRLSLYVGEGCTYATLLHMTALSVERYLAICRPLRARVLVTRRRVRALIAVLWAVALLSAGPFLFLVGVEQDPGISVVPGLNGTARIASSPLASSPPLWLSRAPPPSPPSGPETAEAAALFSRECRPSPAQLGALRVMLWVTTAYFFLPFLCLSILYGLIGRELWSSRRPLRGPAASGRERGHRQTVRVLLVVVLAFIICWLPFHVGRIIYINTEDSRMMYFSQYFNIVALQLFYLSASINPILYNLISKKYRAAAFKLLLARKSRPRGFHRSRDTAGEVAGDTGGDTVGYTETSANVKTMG
# Experimental: as §3, §4
# [9] = target: MC5 (Homo sapiens, UniProt P33032); experiment: cell-based
# Sequence of MC5 (P33032 whole entry): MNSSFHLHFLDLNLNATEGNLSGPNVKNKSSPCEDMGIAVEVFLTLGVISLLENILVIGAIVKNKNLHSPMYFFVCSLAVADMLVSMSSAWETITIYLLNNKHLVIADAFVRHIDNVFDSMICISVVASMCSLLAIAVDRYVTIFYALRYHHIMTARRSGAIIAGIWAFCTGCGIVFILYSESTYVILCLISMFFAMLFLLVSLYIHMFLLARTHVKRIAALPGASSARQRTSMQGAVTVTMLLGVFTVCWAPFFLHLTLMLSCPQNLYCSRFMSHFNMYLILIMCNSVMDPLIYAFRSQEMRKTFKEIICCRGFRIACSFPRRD
# Experimental: as §3, §4
# [10] = target: MC2 (Homo sapiens, UniProt Q01718); experiment: cell-based
# Sequence of MC2 (Q01718 whole entry): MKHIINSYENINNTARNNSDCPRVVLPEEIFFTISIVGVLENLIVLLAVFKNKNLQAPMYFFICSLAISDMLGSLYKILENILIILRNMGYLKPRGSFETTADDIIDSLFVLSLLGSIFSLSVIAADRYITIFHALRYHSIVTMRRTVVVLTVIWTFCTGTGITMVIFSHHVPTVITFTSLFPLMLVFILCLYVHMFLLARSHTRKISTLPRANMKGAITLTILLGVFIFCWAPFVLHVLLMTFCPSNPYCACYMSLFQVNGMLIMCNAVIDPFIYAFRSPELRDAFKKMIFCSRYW
# Sequence of MC2 (Q8TCY5 whole entry partner): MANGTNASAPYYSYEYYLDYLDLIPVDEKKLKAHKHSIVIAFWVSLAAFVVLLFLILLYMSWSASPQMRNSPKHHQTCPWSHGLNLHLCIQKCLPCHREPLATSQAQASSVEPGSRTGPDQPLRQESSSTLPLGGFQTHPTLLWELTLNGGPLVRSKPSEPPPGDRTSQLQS
# Experimental: as §3, §4
# [11] = test system: C57BL/6J mice; experiment: Oral glucose tolerance test (OGTT); format: in vivo, mouse
# Experimental: (§5) C57BL/6J mice were received from Jackson Laboratories at 4 weeks old and aged to 7 weeks and then grouped by body weight into 4 groups of 10. The mice were fasted overnight (12 hours) prior to the assay. Body weights and blood glucose (FreeStyle Lite glucometer) levels were determined. […] At 30, 60, 90, and 120 minutes glucose levels were measured using whole blood collected from the tip of the tail via needle puncture. Upon the final 120 min measurement, food was returned to the mice.
# Oral glucose tolerance tests (OGTTs) were performed as described in Example 1.
# as §5, with “puncture.” for “puncture. Upon the final 120 min measurement, food was returned to the mice.”
# as §5, with “puncture.” for “puncture. Upon the final 120 min measurement, food was returned to the mice.”
# [12] = read-out: percent activation compared to standards, DT-110 @ 1.25 mM, Avg.
# [13] = read-out: percent activation compared to standards, DT-110 @ 1.25 mM, n1
# [14] = read-out: percent activation compared to standards, DT-110 @ 1.25 mM, n2
# [15] = read-out: percent activation compared to standards, DT-110 @ 12.5 mM, Avg.
# [16] = read-out: percent activation compared to standards, DT-110 @ 12.5 mM, n1
# [17] = read-out: percent activation compared to standards, DT-110 @ 12.5 mM, n2
# T1 sequence (Q8TDS4 whole entry): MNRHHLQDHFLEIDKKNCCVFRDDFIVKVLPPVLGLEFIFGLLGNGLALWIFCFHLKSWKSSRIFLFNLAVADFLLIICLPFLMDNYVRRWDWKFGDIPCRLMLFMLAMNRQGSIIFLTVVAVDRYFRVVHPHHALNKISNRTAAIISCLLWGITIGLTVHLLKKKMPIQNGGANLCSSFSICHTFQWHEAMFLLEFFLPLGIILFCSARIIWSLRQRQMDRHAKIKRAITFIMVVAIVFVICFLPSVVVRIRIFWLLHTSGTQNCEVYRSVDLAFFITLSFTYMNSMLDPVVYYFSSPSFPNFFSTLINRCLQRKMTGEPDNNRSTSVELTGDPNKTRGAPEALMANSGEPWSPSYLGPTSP
structure (smiles),measurement,setting,value
CC(C)C[C@@H](NC(=O)CNC(=O)CN)C(=O)O,agonist activity (Ca2+ flux),[1],inactive
same,agonist activity (Ca2+ flux),[2],inactive
same,activation at 1250 µM,[3]; [12],0.2%
same,activation at 1250 µM,[3]; [13],1.6%
same,activation at 1250 µM,[3]; [14],-1.1%
same,activation at 12500 µM,[3]; [15],-0.9%
same,activation at 12500 µM,[3]; [16],-0.8%
same,activation at 12500 µM,[3]; [17],-0.9%
same,activation at 1250 µM,[4]; [12],-8.1%
same,activation at 1250 µM,[4]; [13],-8.1%
same,activation at 1250 µM,[4]; [14],-8%
same,activation at 12500 µM,[4]; [15],54.3%
same,activation at 12500 µM,[4]; [16],52.9%
same,activation at 12500 µM,[4]; [17],55.7%
same,activation at 1250 µM,[5]; [12],-1.9%
same,activation at 1250 µM,[5]; [13],-1.3%
same,activation at 1250 µM,[5]; [14],-2.5%
same,activation at 12500 µM,[5]; [15],-6.6%
same,activation at 12500 µM,[5]; [16],-6.7%
same,activation at 12500 µM,[5]; [17],-6.6%
same,activation at 1250 µM,[6]; [12],0.5%
same,activation at 1250 µM,[6]; [13],0.1%
same,activation at 1250 µM,[6]; [14],0.8%
same,activation at 12500 µM,[6]; [15],-0.9%
same,activation at 12500 µM,[6]; [16],-0.8%
same,activation at 12500 µM,[6]; [17],-0.9%
same,activation at 1250 µM,[7]; [12],-0.5%
same,activation at 1250 µM,[7]; [13],3%
same,activation at 1250 µM,[7]; [14],-4%
same,activation at 12500 µM,[7]; [15],3.4%
same,activation at 12500 µM,[7]; [16],-0.2%
same,activation at 12500 µM,[7]; [17],7%
same,activation at 1250 µM,[8]; [12],-0.3%
same,activation at 1250 µM,[8]; [13],-0.3%
same,activation at 1250 µM,[8]; [14],-0.3%
same,activation at 12500 µM,[8]; [15],-0.4%
same,activation at 12500 µM,[8]; [16],-0.3%
same,activation at 12500 µM,[8]; [17],-0.5%
same,activation at 1250 µM,[9]; [12],0%
same,activation at 1250 µM,[9]; [13],0.7%
same,activation at 1250 µM,[9]; [14],-0.8%
same,activation at 12500 µM,[9]; [15],-0.3%
same,activation at 12500 µM,[9]; [16],-0.6%
same,activation at 12500 µM,[9]; [17],0%
same,activation at 1250 µM,[10]; [12],-0.7%
same,activation at 1250 µM,[10]; [13],0.6%
same,activation at 1250 µM,[10]; [14],-2%
same,activation at 12500 µM,[10]; [15],-1%
same,activation at 12500 µM,[10]; [16],-1%
same,activation at 12500 µM,[10]; [17],-0.9%
same,significance of blood glucose lowering in OGTT,"[11]; Example 5, FIG. 9, 0.1 mg/g",significant
same,significance of blood glucose lowering in OGTT,"[11]; Example 5, FIG. 9, 0.5 mg/g",significant
same,significance of blood glucose lowering in OGTT,"[11]; Example 5, FIG. 9, 1 mg/g",significant
same,blood glucose in response to a glucose load (OGTT),"[11]; Example 5, FIG. 9, 1, 0.5 and 0.1 mg/g body weight","lower blood glucose in response to a glucose load, in a dose-dependent manner"
same,overall effect on blood glucose compared with metformin,[11]; Example 9,not found to be significantly different
same,overall effect on blood glucose in OGTT vs vehicle,"[11]; Example 9, FIG. 14, DT-110 1 mg/g, alamandine 10 mg/g, metformin 0.2 mg/g",significant
same,rise in blood glucose at 30 min in OGTT,"[11]; Example 9, DT-110 1 mg/g, P<0.001 vs. all other treatments",dramatically blocked the rise in blood glucose
same,effect on blood glucose compared with alamandine,"[11]; Example 9, P<0.001",significantly different from alamandine
